Columns and labels:
[1] = Mutagenicity in Salmonella typhimurium TA1535 at 30 to 5000 ug/plate incubated for 48 hrs in absence of Wistar-Han rat S9 fraction by Ames test; format: toxicity; conditions: salmonella enterica subsp. enterica serovar typhimurium, s9, 48 h
[2] = Mutagenicity in Salmonella typhimurium TA100 at 30 to 5000 ug/plate incubated for 48 hrs in presence of Wistar-Han rat S9 fraction by Ames test; format: toxicity, subcellular; conditions: salmonella enterica subsp. enterica serovar typhimurium, s9, 48 h
[3] = Mutagenicity in Salmonella typhimurium TA100 at 30 to 5000 ug/plate incubated for 48 hrs in absence of Wistar-Han rat S9 fraction by Ames test; format: toxicity; conditions: salmonella enterica subsp. enterica serovar typhimurium, s9, 48 h
[4] = Mutagenicity in Salmonella typhimurium TA98 at 30 to 5000 ug/plate incubated for 48 hrs in absence of Wistar-Han rat S9 fraction by Ames test; format: toxicity; conditions: salmonella enterica subsp. enterica serovar typhimurium, s9, 48 h
[5] = Mutagenicity in Salmonella typhimurium TA98 at 30 to 5000 ug/plate incubated for 48 hrs in presence of Wistar-Han rat S9 fraction by Ames test; format: toxicity, subcellular; conditions: salmonella enterica subsp. enterica serovar typhimurium, s9, 48 h
[6] = Mutagenicity in Salmonella typhimurium TA1535 at 30 to 5000 ug/plate incubated for 48 hrs in presence of Wistar-Han rat S9 fraction by Ames test; format: toxicity, subcellular; conditions: salmonella enterica subsp. enterica serovar typhimurium, s9, 48 h
[7] = molecular target: Leucine-rich repeat serine/threonine-protein kinase 2 (Homo sapiens, UniProt Q5S007, G2019S); experiment: Inhibition of recombinant N-terminal GST-fused LRRK2 […] mutant (970 to 2527 residues) (unknown origin) using LRRKtide peptide as substrate assessed as inhibition of substrate phosphorylation preincubated with compound for 15 mins followed by substrate addition and measured after 90 mins in presence of ATP by TR-FRET assay
Leucine-rich repeat serine/threonine-protein kinase 2, sequence (Q5S007 whole entry G2019S, the tested form may be a part): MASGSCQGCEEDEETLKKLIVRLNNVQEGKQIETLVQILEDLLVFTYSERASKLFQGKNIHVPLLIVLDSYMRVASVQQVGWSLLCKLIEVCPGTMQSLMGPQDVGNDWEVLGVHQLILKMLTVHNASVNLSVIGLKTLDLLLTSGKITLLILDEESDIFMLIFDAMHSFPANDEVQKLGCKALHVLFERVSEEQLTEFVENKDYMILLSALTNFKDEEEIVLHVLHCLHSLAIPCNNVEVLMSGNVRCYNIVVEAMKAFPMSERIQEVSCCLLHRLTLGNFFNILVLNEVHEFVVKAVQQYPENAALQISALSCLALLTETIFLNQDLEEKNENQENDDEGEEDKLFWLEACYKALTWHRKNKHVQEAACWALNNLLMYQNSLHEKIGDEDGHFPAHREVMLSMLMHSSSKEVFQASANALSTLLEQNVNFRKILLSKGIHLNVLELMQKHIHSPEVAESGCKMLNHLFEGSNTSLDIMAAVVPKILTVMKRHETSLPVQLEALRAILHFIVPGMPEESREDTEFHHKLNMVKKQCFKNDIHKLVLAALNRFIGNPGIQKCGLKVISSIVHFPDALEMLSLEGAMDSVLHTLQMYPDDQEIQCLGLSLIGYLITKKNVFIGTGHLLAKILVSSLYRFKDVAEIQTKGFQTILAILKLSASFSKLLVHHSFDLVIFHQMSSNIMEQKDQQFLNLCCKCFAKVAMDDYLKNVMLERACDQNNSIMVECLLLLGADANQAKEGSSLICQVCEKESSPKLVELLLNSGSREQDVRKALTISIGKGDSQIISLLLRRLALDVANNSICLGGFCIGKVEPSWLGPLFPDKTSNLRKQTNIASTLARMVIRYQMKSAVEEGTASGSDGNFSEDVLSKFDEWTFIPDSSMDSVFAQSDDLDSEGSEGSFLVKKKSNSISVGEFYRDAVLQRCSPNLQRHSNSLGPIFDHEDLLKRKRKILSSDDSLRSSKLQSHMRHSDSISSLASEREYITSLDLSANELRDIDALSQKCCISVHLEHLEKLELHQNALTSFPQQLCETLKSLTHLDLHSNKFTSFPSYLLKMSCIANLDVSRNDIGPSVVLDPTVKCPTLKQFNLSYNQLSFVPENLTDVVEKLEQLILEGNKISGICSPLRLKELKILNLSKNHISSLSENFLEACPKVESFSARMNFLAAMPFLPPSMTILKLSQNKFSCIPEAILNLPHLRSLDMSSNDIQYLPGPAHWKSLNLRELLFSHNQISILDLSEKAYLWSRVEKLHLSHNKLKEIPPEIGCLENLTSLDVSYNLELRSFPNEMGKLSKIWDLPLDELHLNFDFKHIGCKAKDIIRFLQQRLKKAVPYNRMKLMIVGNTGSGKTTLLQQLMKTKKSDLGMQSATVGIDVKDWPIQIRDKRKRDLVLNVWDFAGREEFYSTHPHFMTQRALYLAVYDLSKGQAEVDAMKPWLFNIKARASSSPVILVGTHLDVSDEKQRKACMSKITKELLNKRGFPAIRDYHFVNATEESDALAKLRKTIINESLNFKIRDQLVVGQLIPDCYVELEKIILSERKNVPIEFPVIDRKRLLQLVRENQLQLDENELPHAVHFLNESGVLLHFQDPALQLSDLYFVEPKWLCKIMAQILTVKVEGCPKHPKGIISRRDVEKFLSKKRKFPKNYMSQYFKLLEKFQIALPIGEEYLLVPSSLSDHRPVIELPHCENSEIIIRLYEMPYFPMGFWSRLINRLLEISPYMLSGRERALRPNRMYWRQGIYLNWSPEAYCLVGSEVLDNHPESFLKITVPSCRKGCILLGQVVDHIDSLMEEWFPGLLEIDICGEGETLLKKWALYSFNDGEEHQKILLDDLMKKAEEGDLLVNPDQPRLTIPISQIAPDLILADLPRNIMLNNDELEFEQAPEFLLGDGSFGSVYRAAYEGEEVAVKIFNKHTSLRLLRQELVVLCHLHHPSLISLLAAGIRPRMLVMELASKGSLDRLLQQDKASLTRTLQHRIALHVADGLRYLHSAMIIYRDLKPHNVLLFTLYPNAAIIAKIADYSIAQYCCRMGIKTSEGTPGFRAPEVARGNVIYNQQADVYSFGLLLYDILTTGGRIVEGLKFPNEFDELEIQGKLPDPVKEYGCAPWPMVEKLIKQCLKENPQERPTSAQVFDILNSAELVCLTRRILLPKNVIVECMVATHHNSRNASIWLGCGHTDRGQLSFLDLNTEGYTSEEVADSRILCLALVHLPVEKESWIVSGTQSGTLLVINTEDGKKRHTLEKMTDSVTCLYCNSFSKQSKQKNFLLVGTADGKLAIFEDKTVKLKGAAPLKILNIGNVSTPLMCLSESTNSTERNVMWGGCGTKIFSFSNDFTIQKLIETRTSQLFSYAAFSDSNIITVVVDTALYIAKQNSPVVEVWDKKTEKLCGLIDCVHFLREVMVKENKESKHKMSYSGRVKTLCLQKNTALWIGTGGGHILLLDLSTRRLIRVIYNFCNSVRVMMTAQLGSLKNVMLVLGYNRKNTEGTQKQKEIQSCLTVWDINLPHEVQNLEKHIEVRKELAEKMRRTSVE

[8] = Total clearance in Beagle dog at 0.05 mg/kg, iv administered as cassette dose by LC-MS/MS analysis; format: ADME, organism-based, Canis lupus familiaris; conditions: in vivo
[9] = Intrinsic clearance in Wistar-Han rat at 0.1 mg/kg, iv administered as cassette dose by LC-MS/MS analysis; format: ADME, organism-based; conditions: in vivo
[10] = Total clearance in Wistar-Han rat at 0.1 mg/kg, iv administered as cassette dose by LC-MS/MS analysis; format: ADME, organism-based; conditions: in vivo
[11] = MRT in Wistar-Han rat at 0.1 mg/kg, iv administered as cassette dose by LC-MS/MS analysis; format: ADME, organism-based; conditions: in vivo
[12] = Intrinsic clearance in Beagle dog at 0.05 mg/kg, iv administered as cassette dose by LC-MS/MS analysis; format: ADME, organism-based, Canis lupus familiaris; conditions: in vivo
[13] = MRT in Beagle dog at 0.05 mg/kg, iv administered as cassette dose by LC-MS/MS analysis; format: ADME, organism-based, Canis lupus familiaris; conditions: in vivo
[14] = molecular target: Leucine-rich repeat serine/threonine-protein kinase 2 (Homo sapiens) (UniProt Q5S007); experiment: Inhibition of LRRK2 in human PBMC using LRRKtide peptide as substrate assessed as Ser935 dephosphorylation preincubated with compound for 15 mins followed by substrate addition and measured after 90 mins in presence of ATP by TR-FRET assay; format: cell-based; conditions: time 105.0 min
Leucine-rich repeat serine/threonine-protein kinase 2 (Homo sapiens), sequence (Q5S007 whole entry): as the sequence (Q5S007 whole entry G2019S, the tested form may be a part) above, with S2019G counted along it

[15] = Lipophilicity, logD of compound at pH 7 by HT-HPLC/DAD analysis; format: physicochemical; conditions: buffer
[16] = molecular target: Voltage-gated inwardly rectifying potassium channel KCNH2 (Homo sapiens, UniProt Q12809); experiment: Inhibition of hERG expressed in CHO cells by QPatch voltage clamp assay
Voltage-gated inwardly rectifying potassium channel KCNH2, sequence (Q12809 whole entry): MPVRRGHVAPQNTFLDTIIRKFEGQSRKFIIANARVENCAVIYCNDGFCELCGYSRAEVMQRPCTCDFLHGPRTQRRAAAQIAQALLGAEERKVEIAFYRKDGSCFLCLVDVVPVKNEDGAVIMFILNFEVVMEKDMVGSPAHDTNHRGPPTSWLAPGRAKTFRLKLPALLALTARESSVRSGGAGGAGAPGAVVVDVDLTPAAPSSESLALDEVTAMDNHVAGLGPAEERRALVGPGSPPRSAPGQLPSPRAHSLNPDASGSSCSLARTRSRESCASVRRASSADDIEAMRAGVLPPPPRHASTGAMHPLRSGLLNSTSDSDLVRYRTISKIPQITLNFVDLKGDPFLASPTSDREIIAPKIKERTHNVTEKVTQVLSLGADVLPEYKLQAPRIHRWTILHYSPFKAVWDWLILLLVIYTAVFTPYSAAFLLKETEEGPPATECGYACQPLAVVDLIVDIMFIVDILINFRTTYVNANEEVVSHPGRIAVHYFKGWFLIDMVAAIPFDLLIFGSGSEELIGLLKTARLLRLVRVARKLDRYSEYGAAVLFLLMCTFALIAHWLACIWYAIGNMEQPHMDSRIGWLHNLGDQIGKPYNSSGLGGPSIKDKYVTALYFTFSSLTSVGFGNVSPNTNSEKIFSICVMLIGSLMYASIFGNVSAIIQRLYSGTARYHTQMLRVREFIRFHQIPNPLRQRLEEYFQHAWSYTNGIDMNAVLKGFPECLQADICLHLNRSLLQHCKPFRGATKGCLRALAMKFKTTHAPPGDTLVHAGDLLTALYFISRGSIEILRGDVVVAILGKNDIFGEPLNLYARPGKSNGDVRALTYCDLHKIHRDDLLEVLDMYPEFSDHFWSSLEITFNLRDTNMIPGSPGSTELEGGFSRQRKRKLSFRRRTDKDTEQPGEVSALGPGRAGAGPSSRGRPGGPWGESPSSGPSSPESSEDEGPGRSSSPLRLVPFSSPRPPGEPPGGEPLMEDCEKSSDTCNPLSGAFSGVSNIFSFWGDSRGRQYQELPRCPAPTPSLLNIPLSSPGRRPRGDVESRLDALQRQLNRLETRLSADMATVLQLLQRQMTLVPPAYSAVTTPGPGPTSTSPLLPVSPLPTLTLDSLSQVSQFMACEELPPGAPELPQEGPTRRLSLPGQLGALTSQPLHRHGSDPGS

[17] = system: rat Mdr1a P-gp; experiment: Apparent permeability across apical to basolateral side in LLC-PK1 cells transfected with rat Mdr1a P-gp incubated for 3 hrs by LC-MS/MS analysis; conditions: pig
[18] = system: rat Mdrl1 P-gp; experiment: Efflux ratio of apparent permeability across basolateral to apical over apical to basolateral side in MDCK cells transfected with rat Mdrl1 P-gp incubated for 3 hrs by LC-MS/MS analysis; conditions: dog, MDCK-MDR1
[19] = molecular target: T1, Serine/threonine-protein kinase BRSK1 (Homo sapiens, UniProt Q8TDC3); experiment: Inhibition of BRSK1 (unknown origin)
T1 sequence (Q8TDC3 whole entry): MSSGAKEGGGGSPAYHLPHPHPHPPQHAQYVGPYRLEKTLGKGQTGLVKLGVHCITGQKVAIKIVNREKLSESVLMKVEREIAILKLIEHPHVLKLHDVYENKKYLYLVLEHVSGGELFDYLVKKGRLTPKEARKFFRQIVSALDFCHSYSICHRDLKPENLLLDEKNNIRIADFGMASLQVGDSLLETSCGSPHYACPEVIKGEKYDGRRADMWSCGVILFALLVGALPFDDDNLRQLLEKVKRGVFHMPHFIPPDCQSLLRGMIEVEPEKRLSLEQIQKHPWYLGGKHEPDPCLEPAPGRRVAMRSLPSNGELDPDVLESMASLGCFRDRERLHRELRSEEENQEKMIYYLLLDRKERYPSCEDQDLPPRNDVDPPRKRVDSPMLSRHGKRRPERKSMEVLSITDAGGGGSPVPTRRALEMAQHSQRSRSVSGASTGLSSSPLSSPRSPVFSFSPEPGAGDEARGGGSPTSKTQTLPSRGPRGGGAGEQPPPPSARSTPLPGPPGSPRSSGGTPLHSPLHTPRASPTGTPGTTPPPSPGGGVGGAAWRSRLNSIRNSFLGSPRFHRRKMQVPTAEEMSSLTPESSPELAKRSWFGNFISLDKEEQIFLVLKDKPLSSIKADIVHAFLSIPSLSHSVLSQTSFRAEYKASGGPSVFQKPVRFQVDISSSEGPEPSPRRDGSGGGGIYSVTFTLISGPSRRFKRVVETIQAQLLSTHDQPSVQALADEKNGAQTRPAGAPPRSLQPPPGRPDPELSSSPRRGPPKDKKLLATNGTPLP

[20] = Unbound brain-to-plasma concentration ratio in iv dosed Wistar-Han rat administered as cassette dose by LC-MS/MS analysis; format: ADME, organism-based; conditions: read-out: K(p,uu,brain)
[21] = MRT in Wistar-Han rat at 2 mg/kg, iv measured after 24 hrs by LC-MS/MS analysis; format: ADME, organism-based; conditions: in vivo
[22] = Drug metabolism in dog assessed as oxidative metabolism of piperazine-THF alcohol lysine region fragment by MetID analysis; format: ADME, Canis lupus familiaris
[23] = Drug metabolism in dog assessed as amide hydrolysis mediated metabolite formation by MetID analysis; format: ADME, Canis lupus familiaris
[24] = Drug metabolism in rat assessed as amide hydrolysis mediated metabolite formation by MetID analysis; format: ADME
[25] = Intrinsic clearance in Wistar-Han rat at 2 mg/kg, iv measured after 24 hrs by LC-MS/MS analysis; format: ADME, organism-based; conditions: in vivo
[26] = Total clearance in Wistar-Han rat at 2 mg/kg, iv measured after 24 hrs by LC-MS/MS analysis; format: ADME, organism-based; conditions: in vivo
[27] = Oral bioavailability in Wistar-Han rat at 5 mg/kg measured after 24 hrs by LC-MS/MS analysis; format: ADME, organism-based; conditions: in vivo
[28] = Drug metabolism in rat assessed as oxidative metabolism of piperazine-THF alcohol lysine region fragment by MetID analysis; format: ADME
[29] = Oral bioavailability in Wistar-Han rat at 10 mg/kg measured after 24 hrs by LC-MS/MS analysis; format: ADME, organism-based; conditions: in vivo
[30] = system: mouse BCRP; experiment: Efflux ratio of apparent permeability across basolateral to apical over apical to basolateral side in MDCK-II cells transfected with mouse BCRP incubated for 3 hrs by LC-MS/MS analysis; conditions: dog

C[C@@]1(N2CCC(c3cc4cc(N)ncc4cc3Cl)CC2)COC[C@@H]1O
Activity [1]: Non-Toxic
Activity [2]: Non-Toxic
Activity [3]: Non-Toxic
Activity [4]: Non-Toxic
Activity [5]: Non-Toxic
Activity [6]: Non-Toxic

Cc1cc2cnc(NC(=O)C3CC34CC4)cc2cc1C1CCN([C@]2(C)COC[C@@H]2O)CC1 (some centres not stated)
IC50 [7]: < 0.08 nM
clearance [8]: 10 mL/min/kg
CL [9]: 241 mL/min/kg
clearance [10]: 31 mL/min/kg
MRT [11]: 3.2 h
CL [12]: 76 mL/min/kg
MRT [13]: 9.8 h
fIC50 [14]: 12 nM
logD [15]: 3.6
IC50 [16]: 4800 nM

Cn1cc([C@H]2C[C@@H]2C(=O)Nc2cc3cc(C4CCN([C@]5(C)COC[C@@H]5O)CC4)c(Cl)cc3cn2)cn1
IC50 [7]: 0.5 nM
CL [9]: 302 mL/min/kg
clearance [10]: 17 mL/min/kg
MRT [11]: 4.4 h
fIC50 [14]: 0.28 nM
Papp A→B at 3 h [17]: 29 ×10⁻⁶ cm/s
efflux ratio at 3 h [18]: 12
IC50 [16]: 9500 nM

C[C@@]1(N2CCC(c3cc4cc(NC(=O)C5CC5)ncc4cc3Cl)CC2)COC[C@@H]1O
IC50 [7]: < 0.08 nM
CL [9]: 684 mL/min/kg
clearance [10]: 12 mL/min/kg
IC50 [19]: 43 nM
MRT [11]: 3.2 h
fIC50 [14]: 4.5 nM

COC(C)(C)[C@@H]1C[C@H]1C(=O)Nc1cc2cc(C3CCN([C@]4(C)COC[C@@H]4O)CC3)c(Cl)cc2cn1
CL [9]: 840 mL/min/kg
clearance [10]: 41 mL/min/kg
Kp uu [20]: 0.3
MRT [11]: 2.1 h

C[C@@]1(N2CCN(c3cc4cc(N)ncc4cc3Cl)CC2)COC[C@@H]1O
Activity [1]: Non-Toxic
Activity [2]: Non-Toxic
Activity [3]: Non-Toxic
Activity [4]: Non-Toxic
Activity [5]: Non-Toxic
Activity [6]: Non-Toxic

C[C@@]1(N2CCC(c3cc4cc(NC(=O)[C@H]5C[C@@H]5c5ccccn5)ncc4cc3Cl)CC2)COC[C@@H]1O
MRT [21]: 5.6 h
Drug metabolism [22]: Metabolite_Detected
Drug metabolism [23]: Metabolite_Detected
Drug metabolism [24]: Metabolite_Notdetected
fIC50 [14]: 0.2 nM
CL [25]: 341 mL/min/kg
clearance [26]: 13 mL/min/kg
bioavailability [27]: 46%
Drug metabolism [28]: Metabolite_Detected

Cn1ccc([C@H]2C[C@@H]2C(=O)Nc2cc3cc(C4CCN([C@]5(C)COC[C@@H]5O)CC4)c(Cl)cc3cn2)n1
CL [9]: 731 mL/min/kg
clearance [10]: 21 mL/min/kg
Kp uu [20]: 0.3
MRT [11]: 2.6 h
fIC50 [14]: 1.2 nM

C[C@@]1(N2CCC(c3cc4cc(NC(=O)[C@H]5CC56CCOCC6)ncc4cc3Cl)CC2)COC[C@@H]1O
clearance [8]: 18 mL/min/kg
MRT [21]: 2.7 h
bioavailability [29]: 67%
CL [12]: 422 mL/min/kg
MRT [13]: 12 h
CL [25]: 875 mL/min/kg
clearance [26]: 35 mL/min/kg

CC1(N2CCC(c3cc4cc(NC(=O)C5CC5)ncc4cc3Cl)CC2)COC1
IC50 [7]: 3 nM
CL [9]: 429 mL/min/kg
clearance [10]: 10 mL/min/kg
MRT [11]: 3.3 h
efflux ratio at 3 h [30]: 1.1
fIC50 [14]: 168 nM
Papp A→B at 3 h [17]: 34 ×10⁻⁶ cm/s
efflux ratio at 3 h [18]: 0.9

CC(C)(O)[C@H]1C[C@H]1C(=O)Nc1cc2cc(C3CCN([C@]4(C)COC[C@@H]4O)CC3)c(Cl)cc2cn1
IC50 [7]: < 0.08 nM
CL [9]: 276 mL/min/kg
clearance [10]: 22 mL/min/kg
MRT [11]: 3.1 h
Papp A→B at 3 h [17]: 33 ×10⁻⁶ cm/s
efflux ratio at 3 h [18]: 9

Cn1cc(C(=O)Nc2cc3cc(C4CCN([C@]5(C)COC[C@@H]5O)CC4)c(Cl)cc3cn2)cn1
IC50 [7]: 0.8 nM
fIC50 [14]: 112 nM
